Data: paper PMC6835155, “Lessons from LIMK1 enzymology and their impact on inhibitor design” (Biochemical Journal, 2019)
Where a name gives a salt, the structure may show the parent alone. Read-outs that look alike come from different tables or passages of the source.

Assays:
[1] = target: T1, LIMK1KD (Homo sapiens, UniProt P53667); experiment: Differential (dynamic) scanning fluorimetry (DSF) assay, LIMK1KD; assay type: binding
T1 construct: His6 (N, cleaved yes); made in house; host or cells: baculovirus; Sf9 for virus, TriEx insect cells for expression

[2] = target: T2, LIMK2KD (Homo sapiens, UniProt P53671); experiment: Differential (dynamic) scanning fluorimetry (DSF) assay, LIMK2KD; assay type: binding
T2 construct: The cDNA coding for LIMK2 residues 330 to 632 was PCR amplified; His6 (N, cleaved yes); made in house; host or cells: baculovirus; Sf9 for virus, TriEx insect cells for expression

[3] = 2 µM LIMK1KD, compound 10 µM, single shot
[4] = LIMK2KD, compound 10 µM, single shot, 10 µM
[5] = 2 µM LIMK1KD, compound 10 µM, single shot, read-out: TM Shift LIMK1 (K)
[6] = LIMK2KD, compound 10 µM, single shot, read-out: TM Shift LIMK2 (K)
[7] = read-out: TM Shift LIMK2 (K), LIMK2KD, compound 10 µM, single shot
[8] = LIMK2KD, compound 10 µM, single shot

T2 sequence (P53671 330-632): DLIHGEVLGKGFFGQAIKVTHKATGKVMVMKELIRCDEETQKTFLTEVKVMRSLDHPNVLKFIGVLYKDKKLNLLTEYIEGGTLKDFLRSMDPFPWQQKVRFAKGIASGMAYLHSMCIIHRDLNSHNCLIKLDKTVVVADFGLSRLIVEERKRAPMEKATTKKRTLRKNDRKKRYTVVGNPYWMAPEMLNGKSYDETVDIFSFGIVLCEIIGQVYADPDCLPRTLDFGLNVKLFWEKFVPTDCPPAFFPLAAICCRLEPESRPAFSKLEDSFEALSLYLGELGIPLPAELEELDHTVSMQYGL
T1 sequence (P53667 330-637): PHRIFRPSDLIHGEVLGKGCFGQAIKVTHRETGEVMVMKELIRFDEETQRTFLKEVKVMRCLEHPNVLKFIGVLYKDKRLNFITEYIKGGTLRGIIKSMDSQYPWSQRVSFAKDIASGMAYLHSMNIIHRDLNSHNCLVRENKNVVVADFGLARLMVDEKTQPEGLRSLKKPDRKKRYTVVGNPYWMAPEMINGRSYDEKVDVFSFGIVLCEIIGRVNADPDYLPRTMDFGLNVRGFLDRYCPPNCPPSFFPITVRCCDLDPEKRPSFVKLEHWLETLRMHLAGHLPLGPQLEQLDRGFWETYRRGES

TM Shift LIMK1 (K) [1, 3] | ΔTm at 10 µM [1, 5] | ΔTm at 10 µM [2, 6] | SMILES | also measured
– | 1.4 °C | -0.2 °C | O=C(O)c1ccc(-c2c[nH]c3ncc(-c4ccccc4)cc23)cc1C1CCCC1 [GSK650394] | –
– | -0.1 °C | 0 °C | CCn1c(-c2nonc2N)nc2c(C#CC(C)(C)O)ncc(OC[C@H]3CCCNC3)c21 [GSK690693] | –
– | 1.2 °C | 2.6 °C | O=C1NC(=O)/C(=C/c2ccc3nccc(-c4ccncc4)c3c2)S1 [GSK1059615] | –
– | 1.3 °C | -0.1 °C | CCn1cc(-c2ccnc3[nH]c(-c4cccc(CN(C)C)c4)cc23)c(-c2ccc(NC(=O)N(C)C)cc2)n1 [GSK1070916] | –
0.4 K | – | – | CNC(=O)c1c(F)cccc1Nc1nc(Nc2cc3c(cc2OC)CCN3C(=O)CN(C)C)nc2[nH]ccc12 [GSK1838705A] | TM Shift LIMK2 (K) [2, 8]: 1.0 K
0.8 K | – | – | CCc1cc(Nc2nccc(-c3c(-c4ccc(OC)c(C(=O)Nc5c(F)cccc5F)c4)nc4ccccn34)n2)c(OC)cc1N1CCC(N2CCN(S(C)(=O)=O)CC2)CC1 [GSK1904529A] | TM Shift LIMK2 (K) [2, 8]: 0.7 K
1.2 K | – | – | COc1ncc(-c2ccc3nccc(-c4ccnnc4)c3c2)cc1NS(=O)(=O)c1ccc(F)cc1F [GSK2126458 (GSK458)] | TM Shift LIMK2 (K) [2, 8]: 0.9 K
– | 0.5 °C | 1.1 °C | CNc1nc(-c2ccc3c(N)n[nH]c3c2)cc(N2C[C@@H](C(=O)NC3CCCCC3)CC[C@H]2C)n1 [GSK2334470] | –
– | 0.1 °C | 2 °C | Cc1c(Cn2c(C)nc3c(C(=O)O)cc(N4CCOCC4)cc32)cccc1C(F)(F)F [GSK2636771] | –
0.0 K | – | – | O=C1Nc2ccc(I)cc2/C1=C/c1cc(Br)c(O)c(Br)c1 [GW5074] | TM Shift LIMK2 (K) [2, 8]: 5.6 K
– | 0.3 °C | -0.5 °C | Cc1cccc(-c2nn3c(c2-c2ccnc4ccc(C(N)=O)cc24)CCC3)n1 [Galunisertib] | –
5.4 K | – | – | Cc1cc(Nc2cc(CN3CCOCC3)c3nc(C)c(Cc4ccc(Cl)cc4F)n3n2)n[nH]1 [Gandotinib] | TM Shift LIMK2 (K) ([2]; LIMK2KD, compound 10 µM, single shot, listed as gandotinib, 10 µM): −0.5 K
– | -0.3 °C | 4 °C | O=c1c(-c2ccc(O)cc2)coc2cc(O)cc(O)c12 [Genistein] | –
0.5 K | – | – | COc1ccc2c(c1)c(C1=C(c3c[nH]c4ccccc34)C(=O)NC1=O)cn2CCCN(C)C [Go 6983] | TM Shift LIMK2 (K) [2, 8]: 1.8 K
– | 3 °C | 1 °C | CN1CCN(C2CCN(C(=O)Nc3cc(Oc4ccc(NC(=O)C5(C(=O)Nc6ccc(F)cc6)CC5)c(F)c4)ccn3)CC2)CC1 [Golvatinib (E7050), Golvatinib] | –
1.8 K | – | – | Cl.Cl.O=S(=O)(NCCNC/C=C/c1ccc(Br)cc1)c1cccc2cnccc12 [H 89 2HCl] | TM Shift LIMK2 (K) [2, 8]: 3.9 K
2.0 K | – | – | Cc1cc(Nc2ncnc3ccc(-c4ccc(CNCCS(C)(=O)=O)o4)cc23)ccc1Oc1ccn2ncnc2c1 [HER2-Inhibitor-1] | TM Shift LIMK2 (K) [2, 8]: 0.2 K
– | 2.7 °C | 1.2 °C | CCS(=O)(=O)Nc1ccc2c(c1)/C(=C(/Nc1ccc(CN3CCCCC3)cc1)c1ccccc1)C(=O)N2 [Hesperadin] | –
– | 0.9 °C | 1.7 °C | C=CCc1ccc(O)c(-c2ccc(O)c(CC=C)c2)c1 [Honokiol] | –
7.0 K | – | – | O=C(c1ccc(Nc2nccc(-c3cc4ccccc4s3)n2)cc1)N1CCC(N2CCCC2)CC1 [IKK-16 (IKK Inhibitor VII)] | TM Shift LIMK2 (K) [2, 8]: 2.1 K
– | -0.2 °C | 0 °C | CNC(=O)c1ccc(-c2cnc3ncc(Cc4ccc5ncccc5c4)n3n2)cc1F [INCB28060] | –

The next lines start with the compound.

SMILES | TM Shift LIMK1 (K) [1, 3] | ΔTm at 10 µM [1, 5] | ΔTm at 10 µM [2, 6] | also measured
Cn1c(=O)n(-c2ccc(C(C)(C)C#N)cc2)c2c3cc(-c4cnc5ccccc5c4)ccc3ncc21 [Dactolisib] | 0.3 K | – | – | TM Shift LIMK1 (K) ([1]; 2 µM LIMK1KD, compound 10 µM, single shot, listed as BEZ235 (NVP-BEZ235, Dactolisib)): -0.1 K; TM Shift LIMK2 (K) [2, 4]: -0.3 K; TM Shift LIMK2 (K) ([2]; LIMK2KD, compound 10 µM, single shot, listed as BEZ235 (NVP-BEZ235, Dactolisib), 10 µM): 0.1 K
CO[C@@H](C(=O)N1Cc2n[nH]c(NC(=O)c3ccc(N4CCN(C)CC4)cc3)c2C1)c1ccccc1 [Danusertib (PHA-739358), Danusertib] | – | 5 °C | 1 °C | –
Cc1nc(Nc2ncc(C(=O)Nc3c(C)cccc3Cl)s2)cc(N2CCN(CCO)CC2)n1 [Dasatinib] | – | 7 °C | – | ΔTm at 10 µM [2, 7]: 1.7 °C
CCC[C@H](NC(=O)/C(C#N)=C/c1cccc(Br)n1)c1ccccc1 [Degrasyn (WP1130), Degrasyn] | -1.0 K | – | – | TM Shift LIMK2 (K) [2, 8]: 0.7 K
CCc1cnn2c(NCc3ccc[n+]([O-])c3)cc(N3CCCC[C@H]3CCO)nc12 [Dinaciclib (SCH727965), Dinaciclib] | – | -0.3 °C | 0.6 °C | –
Cc1ccc(-n2nc(C(C)(C)C)cc2NC(=O)Nc2ccc(OCCN3CCOCC3)c3ccccc23)cc1 [Doramapimod] | -0.1 K | – | 0.9 °C | TM Shift LIMK1 (K) ([1]; 2 µM LIMK1KD, compound 10 µM, single shot, listed as BIRB 796 (Doramapimod)): 0.5 K; TM Shift LIMK2 (K) [2, 4]: 0.7 K
CN1CCN(c2ccc3nc(-c4c(N)c5c(F)cccc5[nH]c4=O)[nH]c3c2)CC1 [Dovitinib (TKI-258) Dilactic Acid, Dovitinib] | – | 2.2 °C | 3.8 °C | –
CCn1c2ccccc2c2cc(Nc3ccnc(NCCCN4CCOCC4)n3)ccc21 [EHop-016] | -0.1 K | – | – | TM Shift LIMK2 (K) [2, 8]: -0.7 K
Cc1cc(Nc2cc(N3CCN(C)CC3)nc(/C=C/c3ccccc3)n2)n[nH]1 [ENMD-2076] | – | 4.6 °C | 6 °C | –
CC(C)(C#N)c1ccc(N2C(=O)OCc3cnc4ccc(-c5cnc6ccccc6c5)cc4c32)cc1 [ETP-46464] | -0.5 K | – | – | TM Shift LIMK2 (K) [2, 8]: -0.5 K
Cn1cc(C2=C(c3cn(C4CCN(Cc5ccccn5)CC4)c4ccccc34)C(=O)NC2=O)c2ccccc21 [Enzastaurin (LY317615), Enzastaurin] | – | 1 °C | 1.6 °C | –
C#Cc1cccc(Nc2ncnc3cc(OCCOC)c(OCCOC)cc23)c1 [Erlotinib HCl (OSI-744), Erlotinib HCl] | – | 0.1 °C | 0.5 °C | –
CO[C@H]1C[C@@H]2CC[C@@H](C)[C@@](O)(O2)C(=O)C(=O)N2CCCC[C@H]2C(=O)O[C@H]([C@H](C)C[C@@H]2CC[C@@H](OCCO)[C@H](OC)C2)CC(=O)[C@H](C)/C=C(\C)[C@@H](O)[C@@H](OC)C(=O)[C@H](C)C[C@H](C)/C=C/C=C/C=C/1C [Everolimus (RAD001), Everolimus] | – | 0.1 °C | -0.9 °C | –
O=S(=O)(c1cccc2cnccc12)N1CCCNCC1 [Fasudil (HA-1077) HCl, Fasudil] | – | 0.8 °C | 0.9 °C | –
Cc1cnc(Nc2ccc(OCCN3CCCC3)cc2)nc1Nc1cccc(S(=O)(=O)NC(C)(C)C)c1 [Fedratinib] | – | 3.2 °C | 1.4 °C | –
CCCCCCCCc1ccc(CCC(N)(CO)CO)cc1 [Fingolimod (FTY720) HCl, Fingolimod] | – | – | – | ΔTm at 10 µM ([1]; read-out: TM Shift LIMK1 (K), 2 µM LIMK1KD, compound 10 µM, single shot): -0.7 °C; ΔTm at 10 µM [2, 7]: 1.1 °C
COc1cc2c(Oc3ccc(NC(=O)C4(C(=O)Nc5ccc(F)cc5)CC4)cc3F)ccnc2cc1OCCCN1CCOCC1 [Foretinib (GSK1363089), Foretinib] | – | 1.9 °C | -0.4 °C | –
COc1cc(Nc2ncc(F)c(Nc3ccc4c(n3)N(COP(=O)(O)O)C(=O)C(C)(C)O4)n2)cc(OC)c1OC [Fostamatinib (R788), Fostamatinib] | – | 1 °C | 0.5 °C | –
CC(C)NC[C@@H](C(=O)N1CCN(c2ncnc3c2[C@H](C)C[C@H]3O)CC1)c1ccc(Cl)cc1 [GDC-0068] | -0.4 K | – | – | TM Shift LIMK2 (K) [2, 4]: -0.4 K
CCNC(=O)Nc1ccc(-c2nc3c(c(N4CCOC[C@@H]4C)n2)CCN(C2COC2)C3)cc1 [GDC-0349] | – | -0.5 °C | -1.3 °C | –
OCCn1cc(-c2ccc3c(c2)CC/C3=N\O)c(-c2ccncc2)n1 [GDC-0879] | – | -0.7 °C | 0 °C | –
CS(=O)(=O)N1CCN(Cc2cc3nc(-c4cccc5[nH]ncc45)nc(N4CCOCC4)c3s2)CC1 [GDC-0941] | -0.3 K | – | – | TM Shift LIMK2 (K) [2, 4]: -0.4 K
Cc1c(CN2CCN(C(=O)[C@H](C)O)CC2)sc2c(N3CCOCC3)nc(-c3cnc(N)nc3)nc12 [GDC-0980 (RG7422)] | 1.4 K | – | – | TM Shift LIMK2 (K) [2, 8]: 0.6 K
NC(=O)c1cccc(-c2cc(Nc3ccc(OC(F)(F)F)cc3)ncn2)c1 [GNF-2] | -1.0 K | – | – | TM Shift LIMK2 (K) [2, 8]: 0.9 K
CCn1c(-c2nonc2N)nc2cnc(Oc3cccc(NC(=O)c4ccc(OCCN5CCOCC5)cc4)c3)cc21 [GSK269962] | 1.0 K | – | – | TM Shift LIMK2 (K) [2, 8]: 0.1 K
CC1=C(C(=O)Nc2cc3cn[nH]c3cc2F)C(c2ccc(C(F)(F)F)cc2)CC(=O)N1 (stereo not shown) [GSK429286A] | – | 0.5 °C | 1.4 °C | –
C[C@@H](Oc1cc(-n2cnc3ccc(CN4CCN(C)CC4)cc32)sc1C(N)=O)c1ccccc1C(F)(F)F [GSK461364] | – | 1.1 °C | 0.8 °C | –
COc1cc2ncnc(Nc3ccc(F)c(Cl)c3)c2cc1OCCCN1CCOCC1 [Gefitinib (ZD1839), Gefitinib] | – | -0.6 °C | – | ΔTm at 10 µM [2, 7]: 0.5 °C
COc1ccc(S(=O)(=O)N(C(C)=O)c2ccccc2/C=C/c2cc[n+]([O-])cc2)cc1 [HMN-214] | – | 2.5 °C | 1 °C | –
O=C(Nc1cc(C(F)(F)F)cc(C(F)(F)F)c1)c1cc(Cl)ccc1O [IMD 0354] | – | -0.6 °C | 1.4 °C | –
